Data reported in patent US10883992B2, “Universal kinase substrates and methods of use thereof” (Regents of the University of Minnesota, priority 2018, dated 2021).
Entries after “also recorded” stand apart in the source; their conditions may differ. Ends that are not written are not given here. Peptide text beside a SMILES is read from it. * marks the point of attachment. Biotin = O=C1N[C@H]2[C@H](CS[C@H]2CCCCC(=O)*)N1

How the values were obtained:
Format in all cases: biochemical
Syk = target: T1, Syk (Homo sapiens, UniProt P43405); test: Michaelis-Menten kinetic analysis of substrate peptides, [γ-33P]ATP radiolabel incorporation
T1 construct: GST; made in house; host or cells: HEK293T cells
Excerpt: (§1) The mammalian expression vector to produce the intracellular portion of human FLT3 fused to GST (GST-FLT3^564-993) was generated by PCR amplifying the encoding sequence and subcloning into the BamHI and NotI sites of pEBG-2T. Mammalian expression vectors to produce BTK, SRC and SYK as GST fusion proteins were previously described. GST-tagged kinases were expressed in HEK293T cells and purified by affinity chromatography using glutathione Sepharose 4B as described (Deng, et al., Journal of Proteome Research 2014, 13, 4339). His6-EGFR^672-998 (“His6” disclosed SEQ ID NO: 25) and His6-ALK^1090-1416 (“His6” disclosed SEQ ID NO: 25) were expressed and purified from Sf9 insect cells as described (Park, et al., Biochemical Journal 2012, 448, 417; Bresler, et al., Science Translational Medicine 2011, 3, 108ra114). Human ABL was purchased from Life Technologies.
(§2) Biotinylated peptides (10 μM final concentration) were arrayed in a 384-well plate in 18 μL reaction buffer (50 mM HEPES, pH 7.5, 150 mM NaCl, 10 mM MgCl2, 1 mM DTT, 0.1% v/v Tween-20). Reactions were initiated by adding […] kinase (to 3-9 ng/μL) and [γ-^33P] ATP (to 50 μM, 0.025 μCi/μL) in reaction buffer. Plates were sealed and incubated at 30° C. for 30 min, and then 2 μL aliquots were transferred to streptavidin membrane (Promega SAM2 biotin capture membrane) using a pin-tool. […] Incorporation of radiolabel was quantified by phosphor imaging using QuantityOne software (Bio-Rad). After background correction, data were normalized such that the peptide with the greatest signal was 100%. Normalized data from at least two separate experiments were averaged and converted to heatmaps using Excel (Microsoft).
(§3) Final kinase concentrations were as follows: 0.3 ng/μL for ABL, BTK, SRC and SYK; 1.5 ng/μL for FLT3; 2.7 ng/μL for ALK and EGFR. At various incubation times (10, 20 and 30 min), 2 μL aliquots were transferred using a pin tool to P81 phosphocellulose paper (Reaction Biology), which was washed three times in 75 mM H3PO4, briefly washed in acetone and allowed to dry before exposing to a phosphor screen. Incorporation of radiolabel into peptides was quantified as above. After background correction, initial rates of reaction were determined by linear regression and fit to the Michaelis-Menten equation using Prism (GraphPad). […] Reported kinetic parameters are the average of three separate experiments except for FLT3 (two experiments).

Src = target: T2, Src (Homo sapiens, UniProt P12931); test: as above; conditions: for kcat: lower limit extrapolated from kcat/Km
T2 construct: GST; made in house; host or cells: HEK293T cells
Excerpt: as §1, §2, §3

BTK = target: T3, BTK (Homo sapiens, UniProt Q06187); test: as above; conditions: for kcat: mean ± sem of fits
T3 construct: GST; made in house; host or cells: HEK293T cells
Excerpt: as §1, §2, §3

FLT3 (GST-FLT3 564-993) = target: T4, FLT3 (GST-FLT3 564-993) (Homo sapiens, UniProt P36888); test: as above; conditions: for kcat: mean ± sem of fits
T4 construct: human FLT3 fused to GST (GST-FLT3^564-993); GST (N); made in house; host or cells: HEK293T cells
T4 sequence (P36888 564-993): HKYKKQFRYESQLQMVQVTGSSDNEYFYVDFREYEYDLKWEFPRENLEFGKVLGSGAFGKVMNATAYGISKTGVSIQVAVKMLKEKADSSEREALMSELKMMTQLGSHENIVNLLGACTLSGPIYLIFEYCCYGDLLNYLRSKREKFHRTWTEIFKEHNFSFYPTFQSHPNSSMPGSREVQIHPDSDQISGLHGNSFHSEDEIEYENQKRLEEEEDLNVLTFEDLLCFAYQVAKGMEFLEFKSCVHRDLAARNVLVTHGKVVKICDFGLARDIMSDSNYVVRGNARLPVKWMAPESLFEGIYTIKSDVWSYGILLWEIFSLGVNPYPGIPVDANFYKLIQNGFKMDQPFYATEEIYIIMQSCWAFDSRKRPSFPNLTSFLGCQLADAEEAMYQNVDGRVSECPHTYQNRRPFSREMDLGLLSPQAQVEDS
Excerpt: as §1, §2, §3

ALK (His6-ALK 1090-1416) = target: T5, ALK (His6-ALK 1090-1416) (Homo sapiens, UniProt Q9UM73); test: as above; conditions: for kcat: lower limit extrapolated from kcat/Km
T5 construct: His6-ALK^1090-1416; His6 (N); made in house; host or cells: Sf9 insect cells
Excerpt: as §1, §2, §3

Abl = target: T6, Abl (Homo sapiens, UniProt P00519); test: as above
T6 construct: purchased Life Technologies
Excerpt: as §1, §2, §3

EGFR (His6-EGFR 672-998) = target: T7, EGFR (His6-EGFR 672-998) (Homo sapiens, UniProt P00533); test: as above; conditions: for kcat: lower limit extrapolated from kcat/Km
T7 construct: His6-EGFR^672-998; His6 (N); made in house; host or cells: Sf9 insect cells
Excerpt: as §1, §2, §3

panel of 15 PTKs = test: Universal kinase substrate screen of the pilot library, [γ-33P]ATP incorporation; conditions: biotinylated peptides 10 μM; for phosphorylation by the panel of PTKs: 50 μM ATP, 30° C., 30 min, 15 PTKs; for average phosphorylation across the kinase panel: averaged over 15 PTKs (FIG. 1B)
Experimental: This pilot library was then subjected to an initial screen to test their phosphorylation by a panel of 15 PTKs that included 12 non-receptor TKs (representing all 10 NRTK families) and 3 receptor TKs (representing 3 RTK families). Pilot peptides were assayed alongside several previously reported substrates that were designed to be specific to individual kinases. Conversion to product was monitored via incorporation of phosphate from [γ-^33P] radiolabeled adenosine triphosphate (ATP). These intensities were normalized to background and visualized as a heat map in FIG. 1. […] By contrast, as previously reported, peptides that had been designed to specifically target individual kinases had more restricted reactivity.
as §2

[1] = lower limit extrapolated from kcat/Km
[2] = peptide 2 relative to peptide 5

T3 sequence (Q06187 whole entry, species assumed): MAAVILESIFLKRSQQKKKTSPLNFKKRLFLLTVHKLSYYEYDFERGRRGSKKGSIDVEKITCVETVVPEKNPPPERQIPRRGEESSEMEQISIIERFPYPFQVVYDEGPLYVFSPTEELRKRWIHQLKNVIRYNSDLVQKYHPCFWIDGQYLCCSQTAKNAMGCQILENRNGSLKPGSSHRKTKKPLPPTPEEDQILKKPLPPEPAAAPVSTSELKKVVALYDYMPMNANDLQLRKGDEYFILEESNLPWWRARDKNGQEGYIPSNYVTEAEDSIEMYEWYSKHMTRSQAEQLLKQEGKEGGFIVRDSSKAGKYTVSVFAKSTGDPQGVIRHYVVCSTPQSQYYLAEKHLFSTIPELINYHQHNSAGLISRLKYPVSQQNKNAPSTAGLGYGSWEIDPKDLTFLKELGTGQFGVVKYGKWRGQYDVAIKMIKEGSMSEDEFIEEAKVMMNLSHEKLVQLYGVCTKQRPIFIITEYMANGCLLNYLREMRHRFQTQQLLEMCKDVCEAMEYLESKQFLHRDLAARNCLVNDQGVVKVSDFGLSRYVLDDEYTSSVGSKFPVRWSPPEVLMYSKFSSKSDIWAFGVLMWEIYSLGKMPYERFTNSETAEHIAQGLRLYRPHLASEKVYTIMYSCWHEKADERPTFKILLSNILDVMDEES
T6 sequence (P00519 whole entry): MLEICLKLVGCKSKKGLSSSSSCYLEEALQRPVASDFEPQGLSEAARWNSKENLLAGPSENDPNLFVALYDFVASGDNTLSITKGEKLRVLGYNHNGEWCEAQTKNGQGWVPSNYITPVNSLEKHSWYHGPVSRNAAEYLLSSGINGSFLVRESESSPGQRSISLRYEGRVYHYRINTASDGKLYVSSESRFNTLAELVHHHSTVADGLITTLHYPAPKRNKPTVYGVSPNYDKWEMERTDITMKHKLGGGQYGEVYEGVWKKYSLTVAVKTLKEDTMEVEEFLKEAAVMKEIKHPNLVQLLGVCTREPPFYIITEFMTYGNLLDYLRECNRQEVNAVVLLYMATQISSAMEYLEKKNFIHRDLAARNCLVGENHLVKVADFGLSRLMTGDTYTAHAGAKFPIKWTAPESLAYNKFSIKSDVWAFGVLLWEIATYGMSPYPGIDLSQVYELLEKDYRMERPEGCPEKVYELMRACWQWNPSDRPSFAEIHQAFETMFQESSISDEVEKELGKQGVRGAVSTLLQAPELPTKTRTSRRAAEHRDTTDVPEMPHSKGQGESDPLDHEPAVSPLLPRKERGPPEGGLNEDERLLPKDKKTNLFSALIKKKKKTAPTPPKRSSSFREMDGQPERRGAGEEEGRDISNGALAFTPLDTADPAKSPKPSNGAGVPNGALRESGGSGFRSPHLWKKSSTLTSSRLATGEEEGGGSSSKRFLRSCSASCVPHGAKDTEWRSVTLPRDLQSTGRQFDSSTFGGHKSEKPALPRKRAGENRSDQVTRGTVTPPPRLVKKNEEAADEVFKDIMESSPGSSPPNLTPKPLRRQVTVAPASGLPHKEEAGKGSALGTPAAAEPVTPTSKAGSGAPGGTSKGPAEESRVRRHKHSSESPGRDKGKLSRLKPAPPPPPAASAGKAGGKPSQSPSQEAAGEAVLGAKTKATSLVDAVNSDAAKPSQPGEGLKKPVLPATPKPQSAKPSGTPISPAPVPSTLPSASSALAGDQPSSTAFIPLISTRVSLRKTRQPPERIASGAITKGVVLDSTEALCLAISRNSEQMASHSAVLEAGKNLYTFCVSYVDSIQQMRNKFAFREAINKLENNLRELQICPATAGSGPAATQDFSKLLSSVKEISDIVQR
T5 sequence (Q9UM73 1090-1416): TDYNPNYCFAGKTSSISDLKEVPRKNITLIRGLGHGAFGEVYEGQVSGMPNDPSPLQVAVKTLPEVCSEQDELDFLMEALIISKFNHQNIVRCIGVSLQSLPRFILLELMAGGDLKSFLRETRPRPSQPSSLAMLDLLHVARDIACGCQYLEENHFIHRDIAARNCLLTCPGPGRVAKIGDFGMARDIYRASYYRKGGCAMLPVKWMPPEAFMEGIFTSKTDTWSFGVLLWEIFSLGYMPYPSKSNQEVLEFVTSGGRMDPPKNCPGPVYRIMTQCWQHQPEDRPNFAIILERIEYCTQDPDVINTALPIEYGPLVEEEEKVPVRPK

**Q.** `CC[C@H](C)[C@H](NC(=O)[C@H](C)NC(=O)[C@H](CCC(=O)O)NC(=O)[C@@H](N)CC(=O)O)C(=O)N[C@@H](Cc1ccc(O)cc1)C(=O)N[C@@H](C)C(=O)N[C@H](C(=O)N[C@H](C(=O)N[C@@H](C)C(=O)NCC(=O)NCC(=O)N[C@@H](CCCCNC(=O)CCCC[C@@H]1SC[C@@H]2NC(=O)N[C@@H]21)C(=O)NCC(=O)NCC(N)=O)C(C)C)[C@@H](C)O` [Peptide 5] (H-DEAIYATVAGGK(Biotin)GG-NH2) was tested. Which kcat (Syk; [1]) did it give?
**A.** The kcat was over 0.1 s⁻¹.

**Q.** What about the kcat (Src) of the same compound?
**A.** The kcat was over 2 s⁻¹.

**Q.** What about the kcat (BTK) of the same compound?
**A.** Its kcat is 0.26 ± 0.08 s⁻¹.

**Q.** What about the kcat (FLT3 (GST-FLT3 564-993)) of the same compound?
**A.** Its kcat is 0.014 ± 0.004 s⁻¹.

**Q.** What about the kcat (ALK (His6-ALK 1090-1416)) of the same compound?
**A.** Its kcat is over 0.02 s⁻¹.

**Q.** What about the kcat (Abl; mean ± sem of fits) of the same compound?
**A.** The kcat was 16.5 ± 3.5 s⁻¹.

**Q.** And the kcat (EGFR (His6-EGFR 672-998))?
**A.** The kcat was over 0.001 s⁻¹.

**Q.** What about the “phosphorylation by the panel of PTKs” value (panel of 15 PTKs) of the same compound?
**A.** The value was “phosphorylated by every PTK tested”.

**Q.** What about the “average phosphorylation across the kinase panel” value (panel of 15 PTKs) of the same compound?
**A.** Its value is “highest average rate of phosphorylation across the entire panel of kinases; also recorded: highest phosphorylation averaged across the kinase panel”.

**Q.** How did the “phosphorylation by the panel of PTKs” value (panel of 15 PTKs) turn out when “DEPIYDTVEGGKbiotinGG (DEPIYDTVEGGK(Biotin)GG) [Peptide 6]” was run?
**A.** Its value is “phosphorylated by every PTK tested”.

**Q.** Which “2/5 kcat/Km ratio” value (Syk; [2]) does the source give for `CC[C@H](C)[C@H](NC(=O)[C@@H]1CCCN1C(=O)[C@H](CC(=O)O)NC(=O)[C@@H](N)CCC(=O)O)C(=O)N[C@@H](Cc1ccc(O)cc1)C(=O)N[C@H](C(=O)N[C@H](C(=O)N[C@@H](CC(C)C)C(=O)N[C@@H](CCC(=O)O)C(=O)NCC(=O)NCC(=O)N[C@@H](CCCCNC(=O)CCCC[C@@H]1SC[C@@H]2NC(=O)N[C@@H]21)C(=O)NCC(=O)NCC(N)=O)[C@@H](C)O)C(C)C` [Peptide 2] (H-EDPIYVTLEGGK(Biotin)GG-NH2) here?
**A.** Its value is 1.8 ± 0.2.

**Q.** And the kcat (Src)?
**A.** Its kcat is over 40 s⁻¹.

**Q.** What about the “2/5 kcat/Km ratio” value (Src; [2]) of the same compound?
**A.** Its value is 0.52 ± 0.07.

**Q.** And the kcat (BTK)?
**A.** Its kcat is 0.061 ± 0.019 s⁻¹.

**Q.** What about the “2/5 kcat/Km ratio” value (BTK; [2]) of the same compound?
**A.** Its value is 0.31 ± 0.01.

**Q.** And the kcat (FLT3 (GST-FLT3 564-993))?
**A.** The kcat was 0.013 ± 0.004 s⁻¹.

**Q.** What about the “2/5 kcat/Km ratio” value (FLT3 (GST-FLT3 564-993); [2]) of the same compound?
**A.** Its value is 1.43 ± 0.07.

**Q.** And the kcat (ALK (His6-ALK 1090-1416))?
**A.** Its kcat is over 0.02 s⁻¹.

**Q.** What about the “2/5 kcat/Km ratio” value (ALK (His6-ALK 1090-1416); [2]) of the same compound?
**A.** The value was 1.23 ± 0.02.

**Q.** What about the kcat (Abl; [1]) of the same compound?
**A.** The kcat was over 4 s⁻¹.

**Q.** And the “2/5 kcat/Km ratio” value (Abl; [2])?
**A.** The value was 0.13 ± 0.01.

**Q.** What about the kcat (EGFR (His6-EGFR 672-998)) of the same compound?
**A.** The kcat was over 0.005 s⁻¹.

**Q.** What about the “2/5 kcat/Km ratio” value (EGFR (His6-EGFR 672-998); [2]) of the same compound?
**A.** Its value is 5.8 ± 0.2.

**Q.** And the “phosphorylation by the panel of PTKs” value (panel of 15 PTKs)?
**A.** Its value is “phosphorylated by every PTK tested”.

**Q.** And the “average phosphorylation across the kinase panel” value (panel of 15 PTKs)?
**A.** The value was “highest average rate of phosphorylation across the entire panel of kinases; also recorded: highest phosphorylation averaged across the kinase panel”.
